The values that follow are results of earlier work, collected in patent US5908840A, “Hetero-biaryl-pyridoquinazolinone derivatives as anti-cancer agents” (American Cyanamid Company, priority 1997, dated 1999).

The conditions of data set [1]: Denny et al.; Ebeid et al.
For data set [2] the following is noted: Denny et al., Mutation Research 232: 233 (1990).
Data set [3] deals with P388. The following applies: Denny et al., Mutation Research 232: 233 (1990).

As for `CN(C)CCNC(=O)c1cccn2c(=O)c3ccccc3nc12` [I, N-[2-(dimethylamino)ethyl]-11-oxo-11H-pyrido[2,1-b]quinalzoline-6-carboxamide], the in vitro activity result in data set [1] is reported as “some in vitro activity”. In addition, the mutagenic activity result in data set [2] is given as “mutagenic activity”. For the same compound, in data set [3], the “activity in a P388 mouse model” value was “inactive”.
